From US11491120B2, “Pharmacological prophylactics against stress-induced affective disorders in females” (The Trustees of Columbia University in the City of New York, priority 2017, dated 2022)

Tested on: female 129S6/SvEv mice
Assay: Forced swim test (FST), immobility time, after stress
Settings: 1 week prophylactic drug
[1] = Forced Swim Test Day 1, Dunnett test Sal vs. drug (0.025)
[2] = Forced Swim Test Day 1, Dunnett test Sal vs. drug (0.075)
[3] = Forced Swim Test Day 1, Dunnett test Sal vs. drug (0.1)
[4] = Forced Swim Test Day 1, Dunnett test Sal vs. drug (0.3)

SMILES: N[C@]1(c2ccccc2Cl)CCC[C@H](O)C1=O [(2S,6S)-HNK]
- p, Sal vs. drug, Dunnett test: Immobility Time (min 1), Forced Swim Test Day 2 (0.025 mg/kg): 0.9954
- p, Sal vs. drug, Dunnett test: Immobility Time (min 1-6), Forced Swim Test Day 2 (0.025 mg/kg): 0.9996
- p, Sal vs. drug, Dunnett test: Immobility Time (min 2), Forced Swim Test Day 2 (0.025 mg/kg): 0.9993
- p, Sal vs. drug, Dunnett test: Immobility Time (min 4), Forced Swim Test Day 2 (0.025 mg/kg): 0.9518
- p, Sal vs. drug, Dunnett test: Immobility Time (min 5), Forced Swim Test Day 2 (0.025 mg/kg): 0.9885
- p, Sal vs. drug, Dunnett test: Immobility Time (min 6), Forced Swim Test Day 2 (0.025 mg/kg): >0.9999
- p, Sal vs. drug, Dunnett test: Immobility Time Average (min 3-6), Forced Swim Test Day 2 (0.025 mg/kg): 0.9999
- * (significance), Sal vs. drug, Dunnett test: Immobility Time (min 1-6), Forced Swim Test Day 2 (0.075 mg/kg): ** (** p<0.01)
- * (significance), Sal vs. drug, Dunnett test: Immobility Time (min 5), Forced Swim Test Day 2 (0.075 mg/kg): *** (*** p<0.0001)
- * (significance), Sal vs. drug, Dunnett test: Immobility Time (min 6), Forced Swim Test Day 2 (0.075 mg/kg): ** (** p<0.01)
- p, Sal vs. drug, Dunnett test: Immobility Time (min 1), Forced Swim Test Day 2 (0.075 mg/kg): 0.9993
- p, Sal vs. drug, Dunnett test: Immobility Time (min 1-6), Forced Swim Test Day 2 (0.075 mg/kg): 0.0025
- p, Sal vs. drug, Dunnett test: Immobility Time (min 2), Forced Swim Test Day 2 (0.075 mg/kg): 0.9998
- p, Sal vs. drug, Dunnett test: Immobility Time (min 4), Forced Swim Test Day 2 (0.075 mg/kg): 0.3169
- p, Sal vs. drug, Dunnett test: Immobility Time (min 5), Forced Swim Test Day 2 (0.075 mg/kg): <0.0001
- p, Sal vs. drug, Dunnett test: Immobility Time (min 6), Forced Swim Test Day 2 (0.075 mg/kg): 0.0013
- p, Sal vs. drug, Dunnett test: Immobility Time Average (min 3-6), Forced Swim Test Day 2 (0.075 mg/kg): 0.9990
- * (significance), Sal vs. drug, Dunnett test: Immobility Time (min 1), Forced Swim Test Day 2 (0.1 mg/kg): * (* p<0.05)
- p, Sal vs. drug, Dunnett test: Immobility Time (min 1), Forced Swim Test Day 2 (0.1 mg/kg): 0.0291
- p, Sal vs. drug, Dunnett test: Immobility Time (min 1-6), Forced Swim Test Day 2 (0.1 mg/kg): 0.2191
- p, Sal vs. drug, Dunnett test: Immobility Time (min 2), Forced Swim Test Day 2 (0.1 mg/kg): 0.4741
- p, Sal vs. drug, Dunnett test: Immobility Time (min 4), Forced Swim Test Day 2 (0.1 mg/kg): 0.9995
- p, Sal vs. drug, Dunnett test: Immobility Time (min 5), Forced Swim Test Day 2 (0.1 mg/kg): 0.9990
- p, Sal vs. drug, Dunnett test: Immobility Time (min 6), Forced Swim Test Day 2 (0.1 mg/kg): 0.9952
- p, Sal vs. drug, Dunnett test: Immobility Time Average (min 3-6), Forced Swim Test Day 2 (0.1 mg/kg): 0.9623
- p, Sal vs. drug, Dunnett test: Immobility Time (min 1), Forced Swim Test Day 2 (0.3 mg/kg): 0.2627
- p, Sal vs. drug, Dunnett test: Immobility Time (min 1-6), Forced Swim Test Day 2 (0.3 mg/kg): 0.9993
- p, Sal vs. drug, Dunnett test: Immobility Time (min 2), Forced Swim Test Day 2 (0.3 mg/kg): 0.7509
- p, Sal vs. drug, Dunnett test: Immobility Time (min 4), Forced Swim Test Day 2 (0.3 mg/kg): 0.9997
- p, Sal vs. drug, Dunnett test: Immobility Time (min 5), Forced Swim Test Day 2 (0.3 mg/kg): 0.9882
- p, Sal vs. drug, Dunnett test: Immobility Time (min 6), Forced Swim Test Day 2 (0.3 mg/kg): 0.4546
- p, Sal vs. drug, Dunnett test: Immobility Time Average (min 3-6), Forced Swim Test Day 2 (0.3 mg/kg): 0.9999
- p, Sal vs. drug, Dunnett test: Immobility Time (min 1), Forced Swim Test Day 2 (2.5 mg/kg): 0.9998
- p, Sal vs. drug, Dunnett test: Immobility Time (min 1-6), Forced Swim Test Day 2 (2.5 mg/kg): 0.5400
- p, Sal vs. drug, Dunnett test: Immobility Time (min 2), Forced Swim Test Day 2 (2.5 mg/kg): >0.9999
- p, Sal vs. drug, Dunnett test: Immobility Time (min 4), Forced Swim Test Day 2 (2.5 mg/kg): 0.8764
- p, Sal vs. drug, Dunnett test: Immobility Time (min 5), Forced Swim Test Day 2 (2.5 mg/kg): 0.6601
- p, Sal vs. drug, Dunnett test: Immobility Time (min 6), Forced Swim Test Day 2 (2.5 mg/kg): 0.9992
- p, Sal vs. drug, Dunnett test: Immobility Time Average (min 3-6), Forced Swim Test Day 2 (2.5 mg/kg): 0.9957
- p, Sal vs. drug, Dunnett test: Immobility Time (min 1), Forced Swim Test Day 2 (10 mg/kg): 0.6616
- p, Sal vs. drug, Dunnett test: Immobility Time (min 1-6), Forced Swim Test Day 2 (10 mg/kg): >0.9999
- p, Sal vs. drug, Dunnett test: Immobility Time (min 2), Forced Swim Test Day 2 (10 mg/kg): 0.9991
- p, Sal vs. drug, Dunnett test: Immobility Time (min 4), Forced Swim Test Day 2 (10 mg/kg): 0.9999
- p, Sal vs. drug, Dunnett test: Immobility Time (min 5), Forced Swim Test Day 2 (10 mg/kg): 0.9877
- p, Sal vs. drug, Dunnett test: Immobility Time (min 6), Forced Swim Test Day 2 (10 mg/kg): 0.9994
- p, Sal vs. drug, Dunnett test: Immobility Time Average (min 3-6), Forced Swim Test Day 2 (10 mg/kg): 0.9999
- * (significance), Immobility Time (min 1) [1]: ** (** p<0.01)
- p, Immobility Time (min 1) [1]: 0.0031
- p, Immobility Time (min 1-6) [1]: 0.8484
- p, Immobility Time (min 3) [1]: 0.9997
- p, Immobility Time (min 4) [1]: >0.9999
- p, Immobility Time (min 5) [1]: >0.9999
- p, Immobility Time (min 6) [1]: 0.9993
- p, Immobility Time Average (min 3-6) [1]: 0.9997
- p, Immobility Time (min 1) [2]: 0.0820
- p, Immobility Time (min 1-6) [2]: 0.0650
- p, Immobility Time (min 3) [2]: 0.9489
- p, Immobility Time (min 4) [2]: 0.9482
- p, Immobility Time (min 5) [2]: 0.9436
- p, Immobility Time (min 6) [2]: 0.6982
- p, Immobility Time Average (min 3-6) [2]: 0.7901
- * (significance), Immobility Time (min 1) [3]: *** (*** p<0.0001)
- p, Immobility Time (min 1) [3]: <0.0001
- p, Immobility Time (min 1-6) [3]: 0.5664
- p, Immobility Time (min 3) [3]: 0.9993
- p, Immobility Time (min 4) [3]: 0.9993
- p, Immobility Time (min 5) [3]: 0.9869
- p, Immobility Time (min 6) [3]: >0.9999
- p, Immobility Time Average (min 3-6) [3]: 0.9992
- * (significance), Immobility Time (min 1) [4]: * (* p<0.05)
- * (significance), Immobility Time (min 1-6) [4]: * (* p<0.05)
- p, Immobility Time (min 1) [4]: 0.0277
- p, Immobility Time (min 1-6) [4]: 0.0361
- p, Immobility Time (min 3) [4]: 0.4573
- p, Immobility Time (min 4) [4]: 0.8163
- p, Immobility Time (min 5) [4]: 0.9482
- p, Immobility Time (min 6) [4]: 0.6194
